Laboratory results reported in publication PMC12647017, “Discovery and optimization of a synthetic small protein domain targeting antibodies” (Frontiers in Bioengineering and Biotechnology, 2025).

Tested on: human polyclonal IgG
Test: Screening ELISA of phage display clones (crude extracts) against human polyclonal IgG
Assay type: binding
Details: crude extract of clones from 6th panning round, 1 µg/well human polyclonal IgG, blocked 3% (w/v) BSA in TBS, 50 µL extract 1 h at 37 °C, Anti-HA tag-HRP, ABTS, Abs405nm
Procedure: The biopanning of the previously developed WWp5_4 library ([Dias et al., 2025]) (Figures 1A,B) against human polyclonal IgG was performed for six rounds, after which an enrichment of ligands was observed (Supplementary Table S3). To assess the binding of each clone to the target, 192 clones were selected and expressed at small scale in 96-deep well blocks, following conditions previously optimised. After cell lysis, the supernatant containing the soluble fraction was used for ELISA assays. The results in Figure 1C illustrate the difference in the absorbance profile of the screened ligands. […] From these 26, only 21 presented high quality for reliable sequencing results. The sequence alignment and diversity of the different binders is represented in Table 1 and Figure 2A.
Small Scale Protein Expression and screening ELISA: From the output of the 6th round of panning, 94 isolated colonies were peaked into two sterile 96-well deep well 2mL round-bottom plates and grown with 200 µL of LB with ampicillin, 125 rpm, 37 °C, overnight (master plates). The following day, to one of the master plates was added glycerol to achieve a final concentration of 15% and was stored at -80 °C. Regarding the other master plate, 12 µL of this culture was added to another sterile 96-well deep well 2 mL round-bottom plate with 1.2 mL of LB with ampicillin and was grown at 37 °C, 125 rpm until OD600nm achieved 0.5-0.6. After this, protein expression was induced with 1 mM IPTG and continued incubation with the previous conditions. The following day, the cultures were sonicated for 30 minutes in ice-water bath and centrifuged for 10 minutes at 2500 x g. The supernatant was collected and transferred to a new microplate to be used in the screening for the ELISA (crude extract). For the ELISA, three microplates were tested: A) Sample binding plate; B) Negative control plate; C) Expression plate. On the sample binding plate, 1 µg/well of human polyclonal IgG was immobilized on the plate at 4 °C, overnight. On the following day, the target was removed, and the wells were washed once with TBS, then the plate was blocked with 300 µL 3% (w/v) BSA in TBS for 1 hour at 37 °C. After this, the wells were washed once with TBS, and were then incubated with 50 µL of crude extract (containing WW domain) for 1 hour at 37 °C. The plate was then washed 5 times with TBS-T, and then incubated with 100 µL of the Anti-HA tag-HRP conjugated antibody (diluted 1:1000) for 1 hour at 37 °C. The plate was then washed once with TBS-T and 4 times with TBS, and then incubated with the substrate ABTS for 1 hour at the dark at 37 °C. The results were then analysed in a microplate reader (TECAN) and the Abs405nm was then measured.
For the Negative control plate the protocol was the same as for the Binding microplate, except for the target immobilization. Instead of having IgG, only coating buffer was added. This plate allows to detect clones that unspecific bind to BSA present in the Blocking Buffer. For the Expression plate the protocol started at the step of incubation with the crude extract, and from there the steps were the same as the Binding microplate. This plate allows to detect clone’s basal expression level.

Sequence: SMGLPPGWDEYKT RRFKL GKTYYYNH HILS KTSTWTDPRMSS [Clone E6]
- ELISA signal: High (high binders (Abs>0.4))
